Data: article PMC10403574, “Discovery of a pyrrole-pyridinimidazole derivative as novel SIRT6 inhibitor for sensitizing pancreatic cancer to gemcitabine” (Cell Death & Disease, 2023)

Tests used:
HDAC3 = HDAC3 (Homo sapiens, UniProt O15379); experiment: Deacetylation activity selectivity, HDAC3; assay type: biochemical
Excerpt: (§1) Based on the above results, 8a was further investigated in this study. […] To further evaluate the selectivity of 8a for SIRT6, we examined the effect of 8a on the deacetylation activity of other HDAC family members, including HDAC1-HDAC11, SIRT1-SIRT3 and SIRT5. […] Furthermore, to confirm binding of 8a to SIRT6 in cells, we carried out the cellular thermal shift assay (CETSA). The CETSA approach builds on the thermal shift assay concept where ligand binding to its target protein enhances the target protein stability. We observed that the thermal stability of SIRT6 increased after 8a treatment (Figs. 2c, d).

[1] = system: H3K9 acetylation (SIRT6 substrate); experiment: H3K9 acetylation in Hela cells, western blot; assay type: cell-based
Procedure: Cells were harvested and lysed in a lysis buffer (solarbio, R0010) supplementing 1 mM PMSF and protease inhibitor (TargetMol, USA). […] Then, the membranes were detected by Tanon 5200 (Tanon, Beijing, China).
To investigate the SIRT6 activity at cellular levels, we examined the acetylation status of H3K9, which is a well-known SIRT6 substrate. […] As these compounds can show violet fluorescence, intracellular localizations of these compounds were evaluated by confocal microscopy.

HDAC4 = HDAC4 (Homo sapiens, UniProt P56524); experiment: Deacetylation activity selectivity, HDAC4; assay type: biochemical
Excerpt: as §1

[2] = Glucose uptake and insulin secretion in vivo; parameters: species or system C57BL/6 mice; details: mice, 8a 10, 20, 30 mg/kg i.p. + glucose 2 g/kg vs glucose group; short term and long term (2 weeks)
Procedure: Male C57BL/6 mice (18 ± 2 g, 5 weeks old) were randomly divided into four groups with six mice per group. Acute drug toxicity test was performed. Mice were fasted for 6 h, and basal blood glucose and serum insulin levels were measured by using Accu-Check Performa (Roche, Swiss) glucose meter and Mouse Insulin ELISA kit (Solarbio). Compound 8a (10, 20, 30 mg/kg) was intraperitoneally injected for 10 min, followed by glucose (2 g/kg) intraperitoneally injected. The blood glucose concentration was measured at 30 and 60 min after glucose injection, and the serum insulin content of mice was measured at 60 min. Compound 8a was treated every other day for 2 weeks and tested for chronic drug toxicity. According to the above method, the serum glucose and insulin content of mice were measured.

[3] = molecular target: T1, SIRT6 mutant (V70A and F86A) (Homo sapiens, UniProt Q8N6T7, F86A/V70A); experiment: FDL assay on SIRT6 mutant (V70A and F86A); assay type: biochemical
T1 construct: The human full-length SIRT6 gene was inserted into the prokaryotic expression vector (pET-28a (+)); inferred from the pET-28a(+) vector and Ni-NTA purification of the wild-type construct); made in house; host or cells: Escherichia coli BL21 (DE3) (inferred from the wild-type protocol)
Procedure: Fluor-De-Lys (FDL) assays were used for the examination of the deacetylation activities of sirtuins as described previously. For the detection of SIRT6 activity, the 50-μL reaction mixture contained 5 μM SIRT6, 2.5 mM NAD^+ (β-Nicotinamide adenine dinucleotide hydrate, Sigma, N1636), 75 μM RHKK-Ac-AMC (GL Biochem, Shanghai), compounds/DMSO, and assay buffer. The reactions were incubated at 37 °C for 2 h, added 50 μL stop solution (40 mM nicotinamide, 6 mg/mL trypsin) at 25 °C for 30 min. Fluorescence intensity was measured at an excitation wavelength of 360 nm and an emission wavelength of 460 nm. IC50 values were calculated in GraphPad Prism version 8.00.
To explore the interaction mechanism, we performed the molecular docking experiment between SIRT6 (PDB ID: 6QCJ) and 8a. […] 8a mainly formed hydrogen bond with the backbone amino group of D187 and the ribose hydroxyl group of the coenzyme NAD^+, and stabilized the whole system by hydrophobic interactions with key amino acids such as I8, V70, W71, F82 and F86 (Fig. 2g). To verify this binding model, the mutant (V70A and F86A) of SIRT6 was constructed by site mutation. […] Moreover, there were also some other potential binding pockets predicted by molecular docking (data not shown). Based on the prediction, we constructed other two SIRT6 mutants (E140A/R195A and T184A/S191A/P193A/E283A). […]

HUVEC cells = experiment: MTT cytotoxicity, normal HUVEC cells; assay type: cell-based; details: 72 h
HDAC8 = HDAC8 (Homo sapiens, UniProt Q9BY41); experiment: Deacetylation activity selectivity, HDAC8; assay type: biochemical
Excerpt: as §1

T1 sequence (Q8N6T7 whole entry V70A/F86A): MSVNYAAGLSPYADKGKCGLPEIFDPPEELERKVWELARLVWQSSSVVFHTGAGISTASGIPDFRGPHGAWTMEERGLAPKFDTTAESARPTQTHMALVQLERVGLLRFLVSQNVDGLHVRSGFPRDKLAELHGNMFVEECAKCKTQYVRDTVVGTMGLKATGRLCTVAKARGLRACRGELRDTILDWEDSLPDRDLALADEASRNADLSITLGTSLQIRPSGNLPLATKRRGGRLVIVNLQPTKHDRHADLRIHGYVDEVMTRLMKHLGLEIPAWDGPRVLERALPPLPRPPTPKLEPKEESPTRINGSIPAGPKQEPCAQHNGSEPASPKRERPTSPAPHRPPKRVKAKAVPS
Sequence of HDAC8 (Q9BY41 whole entry, species assumed): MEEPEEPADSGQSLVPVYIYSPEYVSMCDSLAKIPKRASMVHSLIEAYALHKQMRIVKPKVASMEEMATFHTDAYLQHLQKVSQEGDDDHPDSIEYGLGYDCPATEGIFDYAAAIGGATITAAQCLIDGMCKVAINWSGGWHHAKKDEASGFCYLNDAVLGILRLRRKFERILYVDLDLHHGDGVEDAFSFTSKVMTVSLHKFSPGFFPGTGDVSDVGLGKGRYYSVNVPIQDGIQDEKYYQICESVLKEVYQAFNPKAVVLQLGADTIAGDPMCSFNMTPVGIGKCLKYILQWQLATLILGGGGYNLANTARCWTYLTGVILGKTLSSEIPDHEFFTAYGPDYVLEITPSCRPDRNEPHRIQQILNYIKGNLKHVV
Sequence of HDAC4 (P56524 whole entry, species assumed): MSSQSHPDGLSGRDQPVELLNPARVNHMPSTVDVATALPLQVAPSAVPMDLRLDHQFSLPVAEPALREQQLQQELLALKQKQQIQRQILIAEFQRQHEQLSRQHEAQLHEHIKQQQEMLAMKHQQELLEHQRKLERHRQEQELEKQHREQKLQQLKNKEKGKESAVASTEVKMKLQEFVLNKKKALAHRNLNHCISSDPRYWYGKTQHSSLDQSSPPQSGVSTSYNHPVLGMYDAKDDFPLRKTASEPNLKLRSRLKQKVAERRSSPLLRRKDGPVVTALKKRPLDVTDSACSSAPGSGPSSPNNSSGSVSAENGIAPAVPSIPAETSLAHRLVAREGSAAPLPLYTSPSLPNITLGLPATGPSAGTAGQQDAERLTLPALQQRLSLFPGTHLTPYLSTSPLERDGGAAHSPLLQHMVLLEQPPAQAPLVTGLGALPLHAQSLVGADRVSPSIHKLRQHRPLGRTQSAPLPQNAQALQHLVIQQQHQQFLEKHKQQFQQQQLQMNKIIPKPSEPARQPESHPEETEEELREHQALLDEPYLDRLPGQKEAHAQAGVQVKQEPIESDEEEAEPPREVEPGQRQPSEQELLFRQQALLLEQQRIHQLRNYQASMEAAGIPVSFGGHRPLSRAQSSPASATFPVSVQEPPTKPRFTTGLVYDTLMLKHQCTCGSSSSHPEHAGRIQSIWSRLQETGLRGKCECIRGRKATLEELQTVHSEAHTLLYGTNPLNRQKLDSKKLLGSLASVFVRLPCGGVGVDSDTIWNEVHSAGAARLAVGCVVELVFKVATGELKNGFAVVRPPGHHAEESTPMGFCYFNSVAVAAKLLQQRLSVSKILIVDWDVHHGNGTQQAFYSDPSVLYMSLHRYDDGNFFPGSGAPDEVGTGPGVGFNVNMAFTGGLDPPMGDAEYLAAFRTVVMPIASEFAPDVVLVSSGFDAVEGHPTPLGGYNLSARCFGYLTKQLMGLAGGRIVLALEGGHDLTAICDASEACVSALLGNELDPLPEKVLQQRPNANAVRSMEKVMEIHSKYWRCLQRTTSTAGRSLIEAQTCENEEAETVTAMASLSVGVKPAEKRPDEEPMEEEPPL
Sequence of HDAC3 (O15379 whole entry, species assumed): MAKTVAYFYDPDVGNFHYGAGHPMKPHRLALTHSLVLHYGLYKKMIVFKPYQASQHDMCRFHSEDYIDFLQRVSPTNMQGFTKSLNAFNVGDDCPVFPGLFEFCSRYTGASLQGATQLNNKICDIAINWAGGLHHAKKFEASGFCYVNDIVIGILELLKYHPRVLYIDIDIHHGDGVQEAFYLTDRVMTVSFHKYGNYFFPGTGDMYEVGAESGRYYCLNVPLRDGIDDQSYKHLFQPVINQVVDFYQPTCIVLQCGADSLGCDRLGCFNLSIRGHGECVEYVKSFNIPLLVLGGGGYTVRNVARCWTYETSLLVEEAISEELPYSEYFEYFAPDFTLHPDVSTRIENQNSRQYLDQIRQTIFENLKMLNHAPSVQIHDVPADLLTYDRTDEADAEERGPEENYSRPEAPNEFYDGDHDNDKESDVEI
Sequence of HDAC3 (Q9Y618 395-489 partner limits assumed, species assumed): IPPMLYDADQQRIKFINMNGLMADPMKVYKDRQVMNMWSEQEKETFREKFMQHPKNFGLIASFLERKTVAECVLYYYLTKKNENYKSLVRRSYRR

IC50 (HDAC3): 112 ± 2.05 µM
IC50 (HDAC4): > 200 µM
blood glucose and insulin concentration [2]: no significant difference
IC50 ([3]; FDL assay): 79 ± 9 µM
increase of IC50 to the mutant (V70A and F86A) ([3]; versus wild-type SIRT6): approximately 10 fold
IC50 (HDAC8): 102 ± 2.01 µM
Compound: Br.CN(C)C(SCCCCCCn1cnc2c(-c3cc(Br)c(Br)[nH]3)nccc21)=[N+](C)C.[Cl-] [Compound 8a]
acetylation levels of H3K9 [1]: significantly increased
IC50 (HUVEC cells): 41 µM
